One data set concerns FLT3-ITD-positive cells. Put plainly: Drug combination with chemotherapy, Chou-Talalay plot (CompuSyn). Type of data set: cell-based. The method, then:
The chemotherapeutic agents cytarabine and daunorubicine were dissolved and diluted in aqua dest. Equivalent doses of DMSO were added when used for combination treatment.
For definition of synergism and/or antagonism in drug combinations we used the CompuSyn™ software (Chou, T C and Martin, N; ComboSyn, Inc. Paramus, N. J., USA) as previously described (Chou, T. C. (2006) Theoretical basis, experimental design, and computerized simulation of synergism and antagonism in drug combination studies. Pharmacol Rev, 58, 621-681).

Another data set deals with T1, FLT3-kinase (Homo sapiens, UniProt P36888).
T1 sequence (P36888 27-993): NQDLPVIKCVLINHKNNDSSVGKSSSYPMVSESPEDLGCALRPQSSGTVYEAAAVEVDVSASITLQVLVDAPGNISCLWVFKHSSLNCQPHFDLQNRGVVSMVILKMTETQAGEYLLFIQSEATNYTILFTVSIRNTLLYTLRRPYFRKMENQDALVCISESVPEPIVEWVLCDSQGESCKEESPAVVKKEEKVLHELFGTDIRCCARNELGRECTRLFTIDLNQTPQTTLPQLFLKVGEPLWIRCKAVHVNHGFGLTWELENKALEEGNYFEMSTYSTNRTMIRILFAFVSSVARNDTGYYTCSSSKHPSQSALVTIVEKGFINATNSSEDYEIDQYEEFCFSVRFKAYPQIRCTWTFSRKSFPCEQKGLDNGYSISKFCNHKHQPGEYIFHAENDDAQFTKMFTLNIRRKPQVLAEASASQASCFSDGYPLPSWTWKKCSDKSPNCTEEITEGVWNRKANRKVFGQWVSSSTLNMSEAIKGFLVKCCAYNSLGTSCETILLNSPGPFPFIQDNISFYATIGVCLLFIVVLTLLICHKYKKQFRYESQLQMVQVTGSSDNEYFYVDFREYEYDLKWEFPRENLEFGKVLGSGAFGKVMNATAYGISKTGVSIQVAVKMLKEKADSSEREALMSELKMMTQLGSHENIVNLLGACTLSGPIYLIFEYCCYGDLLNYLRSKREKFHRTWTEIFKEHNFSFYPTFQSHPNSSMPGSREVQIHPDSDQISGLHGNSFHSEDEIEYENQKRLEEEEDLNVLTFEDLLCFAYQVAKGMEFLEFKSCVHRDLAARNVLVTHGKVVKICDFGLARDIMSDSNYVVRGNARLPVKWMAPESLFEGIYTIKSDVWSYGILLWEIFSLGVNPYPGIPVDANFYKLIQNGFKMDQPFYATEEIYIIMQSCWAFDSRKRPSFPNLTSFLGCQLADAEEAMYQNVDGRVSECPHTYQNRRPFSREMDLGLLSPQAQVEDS
The experiment in a line: FLT3-kinase assay at two ATP concentrations. The format is biochemical.

Data set [1] concerns murine 32D-FLT3-ITD cells. Put plainly: Apoptosis assay by cell cycle analysis (sub-G1 fraction) in 32D-FLT3-ITD cells. Type of data set: cell-based. The note with it: 48 h incubation. An excerpt: A human FLT3-ITD construct, subcloned into the pAL expression vector under control of the 5′ long terminal repeat (LTR) of the Moloney murine sarcoma virus (MoMSV) and the plasmid pMAM/BSD were used as previously described (Mizuki, M., Schwable, J., Steur, C., Choudhary, C., Agrawal, S., Sargin, B., Steffen, B., Matsumura, I., Kanakura, Y., Bohmer, F. D., Muller-Tidow, C., Berdel, W. E. & Serve, H. (2003) Suppression of myeloid transcription factors and induction of STAT response genes by AML-specific FLT3 mutations. Blood, 101, 3164-3173). The N676K point mutation was introduced into this FLT3-ITD construct (Medigenomix Martinsried, Germany). […]
The induction of apoptosis in murine 32D-FLT3-ITD cells measured by sub-G1-fraction in cell cycle analysis upon 48 h incubation with two 3-(indolyl)- and 3-(azaindolyl)-4-phenylmaleimide derivatives (DHF125 and DHF150) was evaluated.

The test system of a further data set is FLT3-WT cells. The experiment in a line: Apoptosis assay by cell cycle analysis (sub-G1 fraction) in FLT3-WT cells. Type of data set: cell-based. The note with it: up to 10 μM, 48 h incubation.
The test system of data set [2] is primary AML blasts harboring the FLT3-ITD mutation. Put plainly: Apoptosis (sub-G1 fraction, FACS) in primary AML blasts. Type of data set: cell-based, human. The note with it: primary AML blasts with FLT3-ITD mutation, 72 h incubation. The method, then:
Transfected murine 32D cells (1×10^5 cells/well) were incubated in 2 ml RPMI medium supplemented with 10% FCS with different inhibitor concentrations for 48 hours at 37° C. Primary human cells (2×10^5 cells/well) were incubated for 72 hours at 37° C. After incubation, cells were washed with ice cold PBS, pelleted and mixed with 300 μl of propidium-iodide-buffer (containing 50 μg/ml PI in 0.1% sodium citrate plus 0.1% Triton X 100, Sigma) for 30 minutes at 4° C. Cell cycle analysis was performed as described previously (Nicoletti, I., Migliorati, G., Pagliacci, M. C., Grignani, F. & Riccardi, C. (1991) A rapid and simple method for measuring thymocyte apoptosis by propidium iodide staining and flow cytometry. J Immunol Methods, 139, 271-279) using a FACSCanto™ flow cytometer (BD Biosciences, Heidelberg, Germany).
BM- and PB-samples with heparin as anticoagulant were obtained from AML patients or donors with no evidence of malignant bone marrow infiltration after informed consent in a study approved by the local ethics committee. Mononuclear cells (MNC) were isolated immediately by means of Ficoll-Hypaque (Seromed, Berlin, Germany) density gradient centrifugation. […]
Primary AML blasts at primary diagnosis were incubated for 72 h with both 3-(indolyl)- and 3-(azaindolyl)-4-phenylmaleimide derivatives. Induction of apoptosis was measured by sub-G1-fraction in FACS analysis. […]

The next data set concerns STAT5, ERK and AKT. The experiment in a line: Western blotting of downstream kinase targets. Type of data set: cell-based. The protocol:
2×10^6 cells were incubated in the presence of various inhibitor concentrations alone and in combination for 1 hour at 37° C. Preparation of cellular lysates was performed as described previously (Kindler, T., Breitenbuecher, F., Kasper, S., Estey, E., Giles, F., Feldman, E., Ehninger, G., Schiller, G., Klimek, V., Nimer, S. D., Gratwohl, A., Choudhary, C. R., Mueller-Tidow, C., Serve, H., Gschaidmeier, H., Cohen, P. S., Huber, C. & Fischer, T. (2005) Identification of a novel activating mutation (Y842C) within the activation loop of FLT3 in patients with acute myeloid leukemia (AML). Blood, 105, 335-340). Protein lysates were subjected to SDS polyacrylamid gel electrophoresis (SDS-PAGE) and blotted onto nitrocellulose membrane (Amersham, Freiburg, Germany) as previously described (Kindler, et al 2003). The following antibodies were used: anti-phospho-FLT3, anti-phospho-STAT5 (pTyr694/699), anti-phospho AKT (pSer473), anti-phospho ERK (pThr202/pTyr204) (all Cell Signaling Technology™, Frankfurt, Germany), anti-FLT3, anti-AKT and anti-STAT5 (Santa Cruz, Heidelberg, Germany), and anti-β-Actin (ICN). Densitometric analysis was performed using the program Gel-Pro Analyzer®.
In general terms: In western blotting, separated proteins are transferred to a membrane and probed.

Another data set relates to FLT3. The experiment in a line: Immunoprecipitation of FLT3 (anti-FLT3 and anti-P-Tyr). The format is cell-based.
For data set [3], the system named is non-malignant bone marrow cells. Put plainly: Colony assay of non-malignant bone marrow cells. The note with it: day 10.
Protocol: Bone-marrow MNCs were isolated as indicated above. Bone marrow samples were obtained from patients in CR after NHL or AML treatment or without evidence of any malignant bone marrow infiltration. 1×10^5 cells were plated in 1.1 ml Methocult™ (GF H4534) “Complete” Methylcellulose Medium with recombinant cytokines (StemCell Technologies, Vancouver, Canada) and incubated for 10 days at 37° C. in duplicate. Colony formation was counted on day 10.

This is an account of results in US8841319B2, “Use of 3-(indolyl)- or 3-(azaindolyl)-4-arylmaleimide derivatives in leukemia management” (Johannes Gutenberg-Universitat Mainz, priority 2007, dated 2014).

As for `COc1cc(C2=C(c3c[nH]c4ccccc34)C(=O)NC2=O)cc(OC)c1OC` [DHF125, 3-(Indole-3-yl)-4-(3,4,5-trimethoxyphenyl)-1H-pyrrole-2,5-dione], in the data set with FLT3-ITD-positive cells, the “effect in combination with cytarabine” value was “synergistic effects” and the “effect in combination with daunorubicine” value is recorded as “synergistic effects”. The “inhibition of FLT3-kinase” value at FLT3-kinase was “ATP competitive inhibition”. Further, the “sub-G1-cell fraction (induction of apoptosis)” value in data set [1] was “statistically very significant dose-dependent increase”. For the same compound, the induction of apoptosis result in the data set with FLT3-WT cells is “No significant induction of apoptosis”. The “induction of apoptosis, percentage of apoptotic cells on top of ground apoptosis” value in data set [2] was 10-17%. In the data set on STAT5, ERK and AKT, the “phosphorylation of downstream-targets STAT5, ERK and AKT” value is listed as “dephosphorylation”. In addition, the “phosphorylation of FLT3” value in the data set with FLT3 is reported as “dephosphorylation”.
Turning to `COc1cc(C2=C(c3c[nH]c4ncccc34)C(=O)NC2=O)cc(OC)c1OC` [DHF150, 3-(7-Azaindol-3-yl)-4-(3,4,5-trimethoxyphenyl)-1H-pyrrole-2,5-dione], in the data set on FLT3-ITD-positive cells, the “effect in combination with cytarabine” value is recorded as “synergistic effects” and the “effect in combination with daunorubicine” value is reported as “synergistic effects”. Besides, on FLT3-kinase, the “inhibition of FLT3-kinase” value is reported as “ATP competitive inhibition”. The “sub-G1-cell fraction (induction of apoptosis)” value in data set [1] is “statistically very significant dose-dependent increase”. Besides, the induction of apoptosis result in the data set on FLT3-WT cells is “No significant induction of apoptosis”. For the same compound, the “induction of apoptosis, percentage of apoptotic cells on top of ground apoptosis” value in data set [2] is 17-28%. Moreover, in data set [3] (10 μM), the colony formation result is on record as “reduced to a minimum”. In addition, the “reduction in colony formation” value in data set [3] (up to 5 μM) is “no significant reduction”. Further, the “phosphorylation of downstream-targets STAT5, ERK and AKT” value in the data set on STAT5, ERK and AKT is given as “dephosphorylation”. Also, in the data set on FLT3, the “phosphorylation of FLT3” value is “dephosphorylation”.
